This note sets out measurements from US11214803B2, “Modulators of YAP1 expression” (Ionis Pharmaceuticals, Inc., priority 2019, dated 2022).

Strand notation (5' to 3'): a small letter for the sugar, then the base; units joined by * are phosphorothioate-linked, units joined directly phosphodiester-linked; [ ] holds rarer units or linkages, { } end groups; capitals alone tell only the bases. k = constrained ethyl (cEt); [5mC] = 5-methylcytosine; d = 2'-deoxy (DNA)

The subject of data set [1] is Yap1 mRNA. Kind of data set: Antisense inhibition of human Yap1 in A-431 cells by cEt gapmers, single dose (Example 2, RTS4814). The format is cell-based. The conditions noted are these: 3-10-3 cEt gapmers targeting SEQ ID NO.: 1, and 2. The method in brief:
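Read-out is Yap1 mRNA as percent of untreated cells, by real-time RT-PCR (probe set RTS4814) normalized to total RNA via RIBOGREEN. Cells were A-431 dosed with 2,000 nM gapmer without transfection for approximately 48 hours.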

Data set [2] relates to Yap1 mRNA. The data set can be described thus: Dose-dependent inhibition of human Yap1 in A-431 cells (Example 8, 10,000 cells per well, RTS4814). The format is cell-based. The conditions noted are these: free uptake, approximately 48 hours, RTS4814; for Yap1 mRNA, % UTC: A-431 cells, 10,000 cells per well; for IC50: A-431 cells, linear regression on log/linear plot. The method in brief:
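A-431 cells (10,000/well) dosed with modified oligonucleotides by free uptake; Yap1 mRNA measured ~48 h later with primer-probe set RTS4814, normalized to total RNA (RIBOGREEN). Values are % of untreated control; IC50 from linear regression on log/linear plot.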

Setting [3] is: Table 32, Yap1 mRNA, percent of untreated control.
Where [4] appears, read: Yap1 mRNA as percent of untreated control, A-431 cells, Table 30.
The mark [5] stands for this setting: Table 33, Yap1 mRNA, percent of untreated control.
Where [6] appears, read: Yap1 mRNA as percent of untreated control, A-431 cells, Table 31.

The IC50 is the concentration that gives 50% inhibition. A low value points to greater potency. Take “1076370 (antisense kG*kA*kT*dT*dA*dT*dT*d[5mC]*dG*dG*dT*dA*dT*kT*kT*kT) [compound 1076370]”: the “YAP1 (% UTC)” value in the data set on Yap1 mRNA [1] (setting [3]) worked out at 2 % UTC. In addition, the “Yap1 mRNA, % UTC” value was found to be 46 % UTC with Yap1 mRNA [2] (31.3 nM), 12 % UTC in the data set on Yap1 mRNA [2] (125.0 nM), 4 % UTC with Yap1 mRNA [2] (500.0 nM) and 2 % UTC in the data set on Yap1 mRNA [2] (2000.00 nM). Besides, in the data set on Yap1 mRNA [2], the IC50 was less than 20 nM.

Regarding “1075088 (kA*kT*kT*dT*dA*dT*dA*dG*dT*d[5mC]*dA*dG*dG*kT*kT*k[5mC]; antisense) [compound 1075088]”, the “YAP1 (% UTC)” value in the data set on Yap1 mRNA [1] (setting [4]) is 2 % UTC. The “Yap1 mRNA, % UTC” value with Yap1 mRNA [2] (31.3 nM) amounted to 37 % UTC; in the data set with Yap1 mRNA [2] (125.0 nM), 9 % UTC; in the data set with Yap1 mRNA [2] (500.0 nM) it was 4 % UTC; in the data set with Yap1 mRNA [2] (2000.00 nM), 2 % UTC. For the same substance, in the data set with Yap1 mRNA [2], the IC50 was less than 20 nM.

As to “1074419 (kA*kT*kT*d[5mC]*dT*dT*dT*dA*dG*dA*dG*d[5mC]*d[5mC]*kA*kA*k[5mC]; antisense) [compound 1074419]”, in the data set with Yap1 mRNA [1] (setting [5]), the “YAP1 (% UTC)” value amounted to 4 % UTC. Further, the “Yap1 mRNA, % UTC” value in the data set on Yap1 mRNA [2] (31.3 nM) is on record as 48 % UTC; with Yap1 mRNA [2] (125.0 nM), 15 % UTC; with Yap1 mRNA [2] (500.0 nM) it was 5 % UTC; in the data set with Yap1 mRNA [2] (2000.00 nM), 3 % UTC. The substance also had an IC50 with Yap1 mRNA [2] of less than 20 nM.

On to “1076467 (kG*kT*kA*dT*dT*dT*dA*dG*dA*dG*d[5mC]*dT*dT*kA*kA*kG; antisense) [compound 1076467]”, for which, in the data set with Yap1 mRNA [1] (setting [5]), the “YAP1 (% UTC)” value amounted to 5 % UTC. The “Yap1 mRNA, % UTC” value was determined as 24 % UTC with Yap1 mRNA [2] (31.3 nM), 6 % UTC with Yap1 mRNA [2] (125.0 nM), 3 % UTC with Yap1 mRNA [2] (500.0 nM) and 2 % UTC in the data set with Yap1 mRNA [2] (2000.00 nM). The IC50 with Yap1 mRNA [2] was less than 20 nM.

Turning to “1074480 (kT*k[5mC]*kA*dT*dT*dT*dG*d[5mC]*d[5mC]*dT*dA*dG*dG*kT*kT*k[5mC]; antisense) [compound 1074480]”, the “YAP1 (% UTC)” value in the data set with Yap1 mRNA [1] (setting [4]) worked out at 3 % UTC. For the same substance, the “Yap1 mRNA, % UTC” value in the data set on Yap1 mRNA [2] (31.3 nM) came to 33 % UTC; in the data set on Yap1 mRNA [2] (125.0 nM), 9 % UTC; in the data set with Yap1 mRNA [2] (500.0 nM), 5 % UTC; with Yap1 mRNA [2] (2000.00 nM), 3 % UTC. The IC50 with Yap1 mRNA [2] is less than 20 nM.

For the substance “1074801 (kA*k[5mC]*kA*dA*dA*dT*dA*dG*dT*dG*d[5mC]*dT*dT*kT*kG*kG; antisense) [compound 1074801]”, in the data set on Yap1 mRNA [1] (setting [6]), the “YAP1 (% UTC)” value worked out at 8 % UTC. Besides, the “Yap1 mRNA, % UTC” value came to 76 % UTC in the data set with Yap1 mRNA [2] (31.3 nM), 41 % UTC with Yap1 mRNA [2] (125.0 nM), 19 % UTC with Yap1 mRNA [2] (500.0 nM) and 12 % UTC with Yap1 mRNA [2] (2000.00 nM). The same substance yielded an IC50 with Yap1 mRNA [2] of 100 nM.

Regarding “1074290 (antisense k[5mC]*kT*kG*dA*d[5mC]*dT*dG*dA*dT*dT*d[5mC]*dT*d[5mC]*kT*kG*kG) [compound 1074290]”, in the data set on Yap1 mRNA [1] (setting [3]), the “YAP1 (% UTC)” value was determined as 5 % UTC. Further, the “Yap1 mRNA, % UTC” value in the data set on Yap1 mRNA [2] (31.3 nM) is 49 % UTC; in the data set with Yap1 mRNA [2] (125.0 nM), 17 % UTC; with Yap1 mRNA [2] (500.0 nM), 9 % UTC; in the data set on Yap1 mRNA [2] (2000.00 nM), 7 % UTC. In the data set on Yap1 mRNA [2], this substance came in with an IC50 of less than 20 nM.

On to “1076465 (kG*k[5mC]*kT*dT*dA*dA*dG*dG*dA*dA*dT*dA*dT*kA*k[5mC]*kA; antisense) [compound 1076465]”, for which the “YAP1 (% UTC)” value in the data set on Yap1 mRNA [1] (setting [6]) is 5 % UTC. In addition, the “Yap1 mRNA, % UTC” value with Yap1 mRNA [2] (31.3 nM) stood at 72 % UTC; with Yap1 mRNA [2] (125.0 nM), 32 % UTC; in the data set on Yap1 mRNA [2] (500.0 nM), 14 % UTC; with Yap1 mRNA [2] (2000.00 nM) it was 7 % UTC. Further, the IC50 with Yap1 mRNA [2] was 100 nM.

As for “1076466 (kA*kT*kT*dT*dA*dG*dA*dG*d[5mC]*dT*dT*dA*dA*kG*kG*kA; antisense) [compound 1076466]”, the “YAP1 (% UTC)” value in the data set with Yap1 mRNA [1] (setting [3]) is recorded as 5 % UTC. Also, the “Yap1 mRNA, % UTC” value with Yap1 mRNA [2] (31.3 nM) amounted to 43 % UTC; in the data set on Yap1 mRNA [2] (125.0 nM), 18 % UTC; in the data set on Yap1 mRNA [2] (500.0 nM) it was 8 % UTC; with Yap1 mRNA [2] (2000.00 nM), 6 % UTC. In the data set on Yap1 mRNA [2], the IC50 is less than 20 nM.

As to “1076115 (k[5mC]*kA*kT*dT*dA*dG*dT*dA*dA*dG*d[5mC]*dT*dG*kA*kG*kG; antisense) [compound 1076115]”, the “YAP1 (% UTC)” value in the data set with Yap1 mRNA [1] (setting [5]) is listed as 7 % UTC. Also, the “Yap1 mRNA, % UTC” value with Yap1 mRNA [2] (31.3 nM) is on record as 47 % UTC; in the data set with Yap1 mRNA [2] (125.0 nM) it was 17 % UTC; in the data set on Yap1 mRNA [2] (500.0 nM), 9 % UTC; with Yap1 mRNA [2] (2000.00 nM), 6 % UTC. In the data set with Yap1 mRNA [2], this substance returned an IC50 of less than 20 nM.

In the case of “1074736 (kT*k[5mC]*kA*dG*dT*dA*d[5mC]*dA*dG*dA*dG*dG*dG*k[5mC]*kA*kT; antisense) [compound 1074736]”, the “YAP1 (% UTC)” value in the data set on Yap1 mRNA [1] (setting [4]) is on record as 4 % UTC. For the same substance, the “Yap1 mRNA, % UTC” value with Yap1 mRNA [2] (31.3 nM) was found to be 34 % UTC; in the data set on Yap1 mRNA [2] (125.0 nM), 12 % UTC; in the data set with Yap1 mRNA [2] (500.0 nM), 7 % UTC; in the data set on Yap1 mRNA [2] (2000.00 nM), 7 % UTC. The substance further gave an IC50 with Yap1 mRNA [2] of less than 20 nM.
